Where a name gives a salt, the structure may show the parent alone.
Legend:
[1] = Cell proliferation assay (BrdU incorporation); assay type: cell-based; settings: Homo sapiens, 48 h incubation, cell line not given, read-out: inhibited proliferation IC50
Procedure: Cell proliferation was measured using a colorimetric immunoassay (B/M Roche #164 7229), based on the measurement of pyrimidine analog BrdU incorporation during DNA synthesis in proliferating cells. Cells, e.g., human PC-3 prostate carconima cells, huFSF normal human foreskin fibroblast cells, HCT 116 human colon carcinoma cells or HT 29 human colon carcinoma cells, were cultured in a 96-well plate for 24 h, until a cell count of 3×10^3 to 6×10^3 cells per well in duplicate wells were achieved, in a well volume of 200 μL. The media was changed and 1 μL of 200× control inhibitors or compounds was added to each well. Cells are incubated for 48 h at 37° C. The cells were labeled with BrdU for 4 h at 37° C. The labeling medium was removed and in one step, the cells were fixed and the DNA was denatured (30 min at RT). Anti-BrdU-POD antibody was added to bind to the BrdU incorporated in newly synthesized cellular DNA (60-90 min at RT). The cells were washed 3× with washing buffer, substrate (100 μL) was added and the cells were incubated for 10 min at RT. The substrate reaction was stopped by adding 25 μL of 1M H2SO4. The amount of BrdU incorporated was quantified by measuring the absorbance at 450 nm using ELISA reader. IC50's were calculated using GraFit (Sigma).

| Compound | melting point | IC50 [1] [nM] |
| --- | --- | --- |
| O=c1[nH]cc(Oc2ccccc2)cc1-c1csc(-c2ccncc2)n1 (as salt: salt) [Example 71, 5-Phenoxy-3-(2-(4-pyridinyl)-1,3-thiazol-4-yl)-2(1H)-pyridinone] | 243 to 245 °C | – |
| CCOC(=O)c1cc(-c2csc(-c3ccncc3)n2)c(=O)[nH]c1CC [Example 1, Ethyl 2-ethyl-6-oxo-5-(2-(4-pyridinyl)-1,3-thiazol-4-yl)-1,6-dihydro-3-pyridinecarboxylate] | – | < 1000 |
| CCOC(=O)c1cc(-c2csc(CS(=O)(=O)c3ccc(Cl)cc3)n2)c(=O)[nH]c1C [Example 25] | 300 °C (dec.) | – |
| CCOC(=O)c1cc(-c2csc(CS(=O)(=O)Cc3ccc(F)cc3)n2)c(=O)[nH]c1C [Example 26, Ethyl 5-[2-({[(4-fluorophenyl)methyl]sulfonyl}mthyl)(1,3-thiazol-4-yl)]-2-methyl-6-oxo-1,6-dihydro-3-pyridinecarboxylate] | 300 °C (dec.) | – |
| CCOC(=O)c1cc(-c2csc(CSc3ccccc3)n2)c(=O)[nH]c1C [Example 28, Ethyl 2-methyl-6-oxo-5-{2-(phenylthiomethyl)(1,3-thiazol-4-yl)}-1,6-dihydro-3-pyridinecarboxylate] | 260 °C (dec.) | – |
| CCOC(=O)c1cc(-c2csc(CS(=O)(=O)Cc3cccc(C(F)(F)F)c3)n2)c(=O)[nH]c1C [Example 30] | 300 °C (dec.) | – |
| CCOC(=O)c1cc(-c2csc(CS(=O)(=O)Cc3ccco3)n2)c(=O)[nH]c1C [Example 37, Ethyl 5-(2-{[(2-furylmethyl)sulfonyl]methyl}(1,3-thiazol-4-yl))-2-methyl-6-oxo-1,6-dihydro-3-pyridinecarboxylate] | 290 °C (dec.) | – |
| CCOC(=O)c1cc(-c2csc(CS(=O)(=O)C(C)(C)C)n2)c(=O)[nH]c1C [Example 38, Ethyl 5-(2-{[(tert-butyl)sulfonyl]methyl}(1,3-thiazol-4-yl))-2-methyl-6-oxo-1,6-dihydro-3-pyridinecarboxylate] | 250 °C (dec.) | – |
| CCOC(=O)c1cc(-c2csc(-c3c(Cl)cncc3Cl)n2)c(=O)[nH]c1C [Example 42, Ethyl 5-[2-(3,5-dichloro-pyridyl-4-yl)-thiazol-4-yl]-2-methyl-6-oxo-1,6-dihydro-3-pyridinecarboxylate] | 290 °C (dec.) | – |
| CCOC(=O)c1cc(-c2csc(CS(C)(=O)=O)n2)c(=O)[nH]c1C [Example 43, Ethyl 5-(2-{[(methyl)sulfonyl]methyl}(1,3-thiazol-4-yl))-2-methyl-6-oxo-1,6-dihydro-3-pyridinecarboxylate] | 230 °C (dec.) | – |
| CCOC(=O)c1cc(-c2csc(-c3sccc3CS(=O)(=O)c3ccc(Cl)cc3)n2)c(=O)[nH]c1C [Example 44] | 300 °C (dec.) | – |
| CCOC(=O)c1cc(-c2csc(CCn3cccc(C(F)(F)F)c3=O)n2)c(=O)[nH]c1C [Example 51, Ethyl 2-methyl-6-oxo-5-(2-(2-(2-oxo-3-(trifluoromethyl)-1(2H)-pyridinyl)ethyl)-1,3-thiazol-4-yl)-1,6-dihydro-3-pyridinecarboxylate] | 250 °C (dec.) | – |
| CC(=O)NCCNc1cc(-c2nc(-c3ccc(C)[nH]c3=O)cs2)ccn1 [Example 59, N-(2-{4-[4-(6-Methyl-2-oxo-1,6-dihydropyridin-3-yl)-thiazol-2-yl]-pyridin-2-ylamino}-ethyl)-acetamide] | 230 °C (dec.) | – |
| CCNCCNC(=O)c1cc(-c2csc(-c3ccnc(NCCNCC)c3)n2)c(=O)[nH]c1C [Example 66] | > 260 °C | – |
| COCc1ccc(-c2csc(-c3ccncc3)n2)c(=O)[nH]1 [Example 70, 6-(Methoxymethyl)-3-(2-(4-pyridinyl)-1,3-thiazol-4-yl)-2(1H)-pyridinone] | 249 to 254 °C | – |
| Cc1[nH]c(=O)c(-c2csc(-c3ccnc(NCc4ccccn4)c3)n2)cc1C(=O)NCc1ccccn1 [Example 88, 2-Methyl-6-oxo-N-(2-pyridinylmethyl)-5-(2-(2-((2-pyridinylmethyl)amino)-4-pyridinyl)-1,3-thiazol-4-yl)-1,6-dihydro-3-pyridinecarboxamide] | > 260 °C | – |

Continued, in another order:

| melting point | Compound | IC50 [1] [nM] |
| --- | --- | --- |
| 230 °C (dec.) | CCOC(=O)c1cc(-c2csc(-c3cccs3)n2)c(=O)[nH]c1C [Example 27] | – |
| 270 °C (dec.) | CCOC(=O)c1cc(-c2csc(-c3ccnc(CC)c3)n2)c(=O)[nH]c1C [Example 29] | – |
| 230 °C (dec.) | CCOC(=O)c1cc(-c2csc(-c3ccsc3)n2)c(=O)[nH]c1C [Example 31, Ethyl 2-methyl-6-oxo-5-{2-[3-thienyl](1,3-thiazol-4-yl)}-1,6-dihydro-3-pyridinecarboxylate] | – |
| 230 °C (dec.) | CCOC(=O)c1cc(-c2csc(-c3ccc4c(c3)OCO4)n2)c(=O)[nH]c1C [Example 32, Ethyl 5-(2-(2H-benzo[d]1,3-dioxolan-5-yl)(1,3-thiazol-4-yl))-2-m thyl-6-oxo-1,6-dihydro-3-pyridinecarboxylate] | – |
| 260 °C (dec.) | CCOC(=O)c1cc(-c2csc(-c3ccccc3)n2)c(=O)[nH]c1C [Example 33, Ethyl 2-methyl-6-oxo-5-{2-phenyl(1,3-thiazol-4-yl)}-1,6-dihydro-3-pyridinecarboxylate] | – |
| 260 °C (dec.) | CCOC(=O)c1cc(-c2csc(-c3ccc(F)cc3)n2)c(=O)[nH]c1C [Example 34, Ethyl 2-methyl-6-oxo-5-{2-[4-fluorophenyl](1,3-thiazol-4-yl)}-1,6-dihydro-3-pyridinecarboxylate] | – |
| 260 °C (dec.) | CCOC(=O)c1cc(-c2csc(-c3c(Cl)cccc3Cl)n2)c(=O)[nH]c1C [Example 35, Ethyl 5-[2-(2,6-dichlorophenyl)(1,3-thiazol-4-yl)]2-methyl-6-oxo-1,6-dihydro-3-pyridinecarboxylate] | – |
| 195 °C (dec.) | CCOC(=O)c1cc(-c2csc(-c3csc(C)n3)n2)c(=O)[nH]c1C [Example 36] | – |
| 230 °C (dec.) | CCOC(=O)c1cc(-c2csc(-c3cccnc3)n2)c(=O)[nH]c1C [Example 39] | – |
| 250 °C (dec.) | CCOC(=O)c1cc(-c2csc(-c3ccnc(Cl)c3)n2)c(=O)[nH]c1C [Example 40] | – |
| 240 °C (dec.) | CCOC(=O)c1cc(-c2csc(-c3ccc(OC)cc3)n2)c(=O)[nH]c1C [Example 41, Ethyl 2-methyl-6-oxo-5-{2-[4-methoxyphenyl](1,3-thiazol-4-yl)}-1,6-dihydro-3-pyridinecarboxylate] | – |
| 260 °C (dec.) | CCOC(=O)c1cc(-c2csc(-c3ccnc(N4CCCCC4)c3)n2)c(=O)[nH]c1C [Example 45, Ethyl 2-methyl-6-oxo-5-(2-(2-(1-piperidinyl)-4-pyridinyl)-1,3-thiazol-4-yl)-1,6-dihydro-3-pyridinecarboxylate] | – |
| 260 °C (dec.) | CCOC(=O)c1cc(-c2csc(-c3ccnc(NCC(C)C)c3)n2)c(=O)[nH]c1C [Example 46, Ethyl 2-methyl-5-(2-(2-((2-methylpropyl)amino)-4-pyridinyl)-1,3-thiazol-4-yl)-6-oxo-1,6-dihydro-3-pyridinecarboxylate] | – |
| 290 °C (dec.) | CCOC(=O)c1cc(-c2csc(-c3ccnc(NCc4ccccc4)c3)n2)c(=O)[nH]c1C [Example 48, Ethyl 2-methyl-6-oxo-5-(2-(2-((phenylmethyl)amino)-4-pyridinyl)-1,3-thiazol-4-yl)-1,6-dihydro-3-pyridinecarboxylate] | – |
| 250 °C (dec.) | CCOC(=O)c1cc(-c2csc(-c3ccnc(NCCN(CC)CC)c3)n2)c(=O)[nH]c1C [Example 52, Ethyl 5-(2-(2-((2-(diethylamino)ethyl)amino)-4-pyridinyl)-1,3-thiazol-4-yl)-2-methyl-6-oxo-1,6-dihydro-3-pyridinecarboxylate] | – |
| > 260 °C | CCOC(=O)c1cc(-c2csc(-c3ccnc(NCc4ccc(OC)cc4)c3)n2)c(=O)[nH]c1C [Example 64, Ehtyl 5-{2-[2-(4-Methoxy-benzyamino)-pyridin-4-yl]-thiazol-4-yl}-2-methyl-6-oxo-1,6-dihydro-3-pyridinecarboxylate] | – |
| > 260 °C | CCOC(=O)c1cc(-c2csc(-c3ccnc(N)c3)n2)c(=O)[nH]c1C [Example 65, Ethyl 2-methyl-6-oxo-5-(2-(2-(amino)-4-pyridinyl)-1,3-thiazol-4-yl)-1,6-dihydro-3-pyridinecarboxylate] | – |
| 270 °C (dec.) | CCOC(=O)c1cc(-c2csc(-c3ccnc(NC)c3)n2)c(=O)[nH]c1C [Example 83, Ethyl 2-methyl-5-(2-(2-(methylamino)-4-pyridinyl)-1,3-thiazol-4-yl)-6-oxo-1,6-dihydro-3-pyridinecarboxylate] | – |
| 270 °C (dec.) | CCOC(=O)c1cc(-c2csc(-c3ccnc(NCc4ccccn4)c3)n2)c(=O)[nH]c1C [Example 90, Ethyl 2-methyl-6-oxo-5-(2-(2-((2-pyridinylmethyl)amino)-4-pyridinyl)-1,3-thiazol-4-yl)-1,6-dihydro-3-pyridinecarboxylate] | – |
| 270 °C (dec.) | CCOC(=O)c1cc(-c2csc(-c3ccnc(NCCOc4ccccc4)c3)n2)c(=O)[nH]c1C [Example 91, Ethyl 2-methyl-6-oxo-5-(2-(2-((2-(phenyloxy)ethyl)amino)-4-pyridinyl)-1,3-thiazol-4-yl)-1,6-dihydro-3-pyridinecarboxylate] | – |

— US20040147561A1, “Pyrid-2-one derivatives and methods of use” (priority 2002, published 2004)
